{"source": "paper PMC9395504", "about": "(Investigational New Drugs, 2022)", "assay": "Safety: adverse events by NCI-CTCAE v4.0, phase 1 study Part 1", "assay_type": "in vivo, human", "description": "We defined the dose-limiting toxicity (DLT) period as the first 28 days of each dose-escalation cohort’s treatment cycle (DLT window). […] Non-hematologic DLTs included grade ≥3 nausea, vomiting, or diarrhea enduring >48 hours despite standard medical management, grade 3 fatigue persisting >7 days or grade 4 fatigue, any grade ≥3 metabolic laboratory abnormalities that are not controlled within 48 hours by standard medical management.", "key": {"[1]": {"conditions": "All patients, N=31, attributed to AMG 232 only"}, "[2]": {"conditions": "All patients, N=31, attributed to any drug"}}}
{"smiles": "CC(C)[C@@H](CS(=O)(=O)C(C)C)N1C(=O)[C@@](C)(CC(=O)O)C[C@H](c2cccc(Cl)c2)[C@H]1c1ccc(Cl)cc1", "note": "[AMG 232]", "values": [{"measurement": "Share of treatment-emergent AEs attributable to AMG 232", "setting": "240 of 614 AEs, in 30 subjects", "value": 39, "unit": "%"}, {"measurement": "AEs Grade 1", "setting": "All patients, N=31", "value": "31 (100) N (%)"}, {"measurement": "AEs Grade 2", "setting": "All patients, N=31", "value": "30 (97) N (%)"}, {"measurement": "AEs Grade 3", "setting": "All patients, N=31", "value": "25 (81) N (%)"}, {"measurement": "AEs Grade 4", "setting": "All patients, N=31", "value": "2 (6) N (%)"}, {"measurement": "AEs leading to AMG 232 d/c", "setting": "All patients, N=31", "value": "7 (23) N (%)"}, {"measurement": "AEs leading to dabraf d/c", "setting": "All patients, N=31", "value": "2 (6) N (%)"}, {"measurement": "Serious AE Adrenal insufficiency", "setting": "All patients, N=31", "value": "2 (6) N (%)"}, {"measurement": "Serious AE Anemia", "setting": "All patients, N=31", "value": "1 (3) N (%)"}, {"measurement": "Serious AE Cellulitis", "setting": "All patients, N=31", "value": "2 (6) N (%)"}, {"measurement": "Serious AE Dehydration", "setting": "All patients, N=31", "value": "3 (10) N (%)"}, {"measurement": "Serious AE Diarrhea", "setting": "All patients, N=31", "value": "4 (13) N (%)"}, {"measurement": "Serious AE Fatigue", "setting": "All patients, N=31", "value": "1 (3) N (%)"}, {"measurement": "Serious AE Hypotension", "setting": "All patients, N=31", "value": "1 (3) N (%)"}, {"measurement": "Serious AE Nausea", "setting": "All patients, N=31", "value": "5 (16) N (%)"}, {"measurement": "Serious AE Peripheral Edema", "setting": "All patients, N=31", "value": "1 (3) N (%)"}, {"measurement": "Serious AE Pulmonary embolism", "setting": "All patients, N=31", "value": "5 (16) N (%)"}, {"measurement": "Serious AE Pyrexia", "setting": "All patients, N=31", "value": "5 (16) N (%)"}, {"measurement": "Serious AE Seizure", "setting": "All patients, N=31", "value": "3 (10) N (%)"}, {"measurement": "Serious AE Thrombocytopenia", "setting": "All patients, N=31", "value": "1 (3) N (%)"}, {"measurement": "Serious AE Vomiting", "setting": "All patients, N=31", "value": "5 (16) N (%)"}, {"measurement": "AE AST increased", "setting": "[1]", "value": "3 (10) N (%)"}, {"measurement": "AE Abdominal pain", "setting": "[1]", "value": "5 (16) N (%)"}, {"measurement": "AE Adrenal insufficiency", "setting": "[1]", "value": "0 N (%)"}, {"measurement": "AE Anemia", "setting": "[1]", "value": "5 (16) N (%)"}, {"measurement": "AE Cellulitis", "setting": "[1]", "value": "0 N (%)"}, {"measurement": "AE Chills", "setting": "[1]", "value": "2 (6) N (%)"}, {"measurement": "AE Cough", "setting": "[1]", "value": "2 (6) N (%)"}, {"measurement": "AE Decreased appetite", "setting": "[1]", "value": "13 (42) N (%)"}, {"measurement": "AE Dehydration", "setting": "[1]", "value": "1 (3) N (%)"}, {"measurement": "AE Dermatitis acneiform", "setting": "[1]", "value": "3 (10) N (%)"}, {"measurement": "AE Diarrhea", "setting": "[1]", "value": "24 (77) N (%)"}, {"measurement": "AE Dizziness", "setting": "[1]", "value": "3 (10) N (%)"}, {"measurement": "AE Dry mouth", "setting": "[1]", "value": "3 (10) N (%)"}, {"measurement": "AE Dysgeusia", "setting": "[1]", "value": "4 (13) N (%)"}, {"measurement": "AE Dyspepsia", "setting": "[1]", "value": "3 (10) N (%)"}, {"measurement": "AE Fatigue", "setting": "[1]", "value": "23 (74) N (%)"}, {"measurement": "AE Headache", "setting": "[1]", "value": "3 (10) N (%)"}, {"measurement": "AE Hypertension", "setting": "[1]", "value": "2 (6) N (%)"}, {"measurement": "AE Hypotension", "setting": "[1]", "value": "1 (3) N (%)"}, {"measurement": "AE Lipase increased", "setting": "[1]", "value": "4 (13) N (%)"}, {"measurement": "AE Malaise", "setting": "[1]", "value": "4 (13) N (%)"}, {"measurement": "AE Nausea", "setting": "[1]", "value": "27 (87) N (%)"}, {"measurement": "AE Neutropenia", "setting": "[1]", "value": "3 (10) N (%)"}, {"measurement": "AE Peripheral Edema", "setting": "[1]", "value": "1 (3) N (%)"}, {"measurement": "AE Pruritus", "setting": "[1]", "value": "0 N (%)"}, {"measurement": "AE Pulmonary embolism", "setting": "[1]", "value": "2 (6) N (%)"}, {"measurement": "AE Pyrexia", "setting": "[1]", "value": "2 (6) N (%)"}, {"measurement": "AE Rash", "setting": "[1]", "value": "2 (6) N (%)"}, {"measurement": "AE Seizure", "setting": "[1]", "value": "0 N (%)"}, {"measurement": "AE Thrombocytopenia", "setting": "[1]", "value": "3 (10) N (%)"}, {"measurement": "AE Vomiting", "setting": "[1]", "value": "21 (68) N (%)"}, {"measurement": "AE AST increased", "setting": "[2]", "value": "6 (19) N (%)"}, {"measurement": "AE Abdominal pain", "setting": "[2]", "value": "6 (19) N (%)"}, {"measurement": "AE Adrenal insufficiency", "setting": "[2]", "value": "2 (6) N (%)"}, {"measurement": "AE Anemia", "setting": "[2]", "value": "9 (29) N (%)"}, {"measurement": "AE Cellulitis", "setting": "[2]", "value": "2 (6) N (%)"}, {"measurement": "AE Chills", "setting": "[2]", "value": "8 (26) N (%)"}, {"measurement": "AE Cough", "setting": "[2]", "value": "8 (26) N (%)"}, {"measurement": "AE Decreased appetite", "setting": "[2]", "value": "16 (52) N (%)"}, {"measurement": "AE Dehydration", "setting": "[2]", "value": "9 (29) N (%)"}, {"measurement": "AE Dermatitis acneiform", "setting": "[2]", "value": "14 (45) N (%)"}, {"measurement": "AE Diarrhea", "setting": "[2]", "value": "27 (87) N (%)"}, {"measurement": "AE Dizziness", "setting": "[2]", "value": "5 (16) N (%)"}, {"measurement": "AE Dry mouth", "setting": "[2]", "value": "5 (16) N (%)"}, {"measurement": "AE Dysgeusia", "setting": "[2]", "value": "6 (19) N (%)"}, {"measurement": "AE Dyspepsia", "setting": "[2]", "value": "4 (13) N (%)"}, {"measurement": "AE Fatigue", "setting": "[2]", "value": "25 (81) N (%)"}, {"measurement": "AE Headache", "setting": "[2]", "value": "15 (48) N (%)"}, {"measurement": "AE Hypertension", "setting": "[2]", "value": "8 (26) N (%)"}, {"measurement": "AE Hypotension", "setting": "[2]", "value": "8 (26) N (%)"}, {"measurement": "AE Lipase increased", "setting": "[2]", "value": "5 (16) N (%)"}, {"measurement": "AE Malaise", "setting": "[2]", "value": "4 (13) N (%)"}, {"measurement": "AE Nausea", "setting": "[2]", "value": "28 (90) N (%)"}, {"measurement": "AE Neutropenia", "setting": "[2]", "value": "5 (16) N (%)"}, {"measurement": "AE Peripheral Edema", "setting": "[2]", "value": "13 (42) N (%)"}, {"measurement": "AE Pruritus", "setting": "[2]", "value": "11 (35) N (%)"}, {"measurement": "AE Pulmonary embolism", "setting": "[2]", "value": "5 (16) N (%)"}, {"measurement": "AE Pyrexia", "setting": "[2]", "value": "11 (35) N (%)"}, {"measurement": "AE Rash", "setting": "[2]", "value": "7 (23) N (%)"}, {"measurement": "AE Seizure", "setting": "[2]", "value": "3 (10) N (%)"}, {"measurement": "AE Thrombocytopenia", "setting": "[2]", "value": "7 (23) N (%)"}, {"measurement": "AE Vomiting", "setting": "[2]", "value": "22 (71) N (%)"}, {"measurement": "AMG 232-related AE abdominal pain, patients", "setting": "all 31 patients", "value": 16, "unit": "%"}, {"measurement": "AMG 232-related AE anemia, patients", "setting": "all 31 patients", "value": 16, "unit": "%"}, {"measurement": "AMG 232-related AE decreased appetite, patients", "setting": "all 31 patients", "value": 42, "unit": "%"}, {"measurement": "AMG 232-related AE diarrhea, patients", "setting": "all 31 patients", "value": 77, "unit": "%"}, {"measurement": "AMG 232-related AE dysgeusia, patients", "setting": "all 31 patients", "value": 13, "unit": "%"}, {"measurement": "AMG 232-related AE fatigue, patients", "setting": "all 31 patients", "value": 74, "unit": "%"}, {"measurement": "AMG 232-related AE increased lipase, patients", "setting": "all 31 patients", "value": 13, "unit": "%"}, {"measurement": "AMG 232-related AE malaise, patients", "setting": "all 31 patients", "value": 13, "unit": "%"}, {"measurement": "AMG 232-related AE nausea, patients", "setting": "all 31 patients", "value": 87, "unit": "%"}, {"measurement": "AMG 232-related AE vomiting, patients", "setting": "all 31 patients", "value": 68, "unit": "%"}, {"measurement": "Patients with serious AMG 232-related AEs", "setting": "all 31 patients", "value": 8, "unit": "patients"}, {"measurement": "Serious AMG 232-related AE diarrhea, patients", "setting": "all 31 patients", "value": 10, "unit": "%"}, {"measurement": "Serious AMG 232-related AE nausea, patients", "setting": "all 31 patients", "value": 13, "unit": "%"}, {"measurement": "Serious AMG 232-related AE pulmonary embolism, patients", "setting": "all 31 patients", "value": 6.5, "unit": "%"}, {"measurement": "Serious AMG 232-related AE vomiting, patients", "setting": "all 31 patients", "value": 10, "unit": "%"}, {"measurement": "SAE diarrhea, patients", "setting": "all 31 patients, AMG 232 + T±D", "value": 13, "unit": "%"}, {"measurement": "SAE nausea, patients", "setting": "all 31 patients, AMG 232 + T±D", "value": 16, "unit": "%"}, {"measurement": "SAE vomiting, patients", "setting": "all 31 patients, AMG 232 + T±D", "value": 16, "unit": "%"}, {"measurement": "Treatment-emergent AE acneiform dermatitis, patients", "setting": "all 31 patients, AMG 232 + T±D", "value": 45, "unit": "%"}, {"measurement": "Treatment-emergent AE decreased appetite, patients", "setting": "all 31 patients, AMG 232 + T±D", "value": 52, "unit": "%"}, {"measurement": "Treatment-emergent AE diarrhea, patients", "setting": "all 31 patients, AMG 232 + T±D", "value": 87, "unit": "%"}, {"measurement": "Treatment-emergent AE fatigue, patients", "setting": "all 31 patients, AMG 232 + T±D", "value": 81, "unit": "%"}, {"measurement": "Treatment-emergent AE headache, patients", "setting": "all 31 patients, AMG 232 + T±D", "value": 48, "unit": "%"}, {"measurement": "Treatment-emergent AE nausea, patients", "setting": "all 31 patients, AMG 232 + T±D", "value": 90, "unit": "%"}, {"measurement": "Treatment-emergent AE peripheral edema, patients", "setting": "all 31 patients, AMG 232 + T±D", "value": 42, "unit": "%"}, {"measurement": "Treatment-emergent AE pruritus, patients", "setting": "all 31 patients, AMG 232 + T±D", "value": 35.5, "unit": "%"}, {"measurement": "Treatment-emergent AE pyrexia, patients", "setting": "all 31 patients, AMG 232 + T±D", "value": 35.5, "unit": "%"}, {"measurement": "Treatment-emergent AE vomiting, patients", "setting": "all 31 patients, AMG 232 + T±D", "value": 71, "unit": "%"}, {"measurement": "Patients with serious AEs (SAEs)", "setting": "all 31 patients, AMG 232 + T±D, 24 patients", "value": 77, "unit": "%"}, {"measurement": "Patients withdrawn/discontinued from AMG 232 due to AEs", "setting": "all 31 patients, seven patients", "value": 23, "unit": "%"}]}
